Assays:
Septoria tritici = test: Example IX-B: in vivo preventive test on Septoria tritici (leaf spot on wheat); details: Zymoseptoria tritici, 576 h; compounds of formula IX; 500 ppm of active ingredient; wheat plants, preventive spray; evaluated 24 days after inoculation; read-out: efficacy
Experimental: Example IX-B: In Vivo Preventive Test on Septoria Tritici (Leaf Spot on Wheat)
(§1) The active ingredients are made soluble and homogenized in a mixture of Dimethyl sulfoxide/Acetone/Tween® 80 and then diluted in water to the desired concentration.
(§2) The young plants of wheat are treated by spraying the active ingredient prepared as described above. Control plants are treated only with an aqueous solution of Acetone/Dimethyl sulfoxide/Tween® 80.
After 24 hours, the plants are contaminated by spraying the leaves with an aqueous suspension of Septoria tritici spores. The contaminated wheat plants are incubated for 72 hours at 18° C. and at 100% relative humidity and then for 21 days at 20° C. and at 90% relative humidity.
The test is evaluated 24 days after the inoculation. 0% means an efficacy which corresponds to that of the control plants while an efficacy of 100% means that no disease is observed.

Sphaerotheca fuliginea = test: Example IX-C: in vivo preventive test on Sphaerotheca fuliginea (powdery mildew on cucurbits); details: Podosphaera fuliginea, 360 h; compounds of formula IX; 500 ppm of active ingredient; gherkin plants, preventive spray; evaluated 15 days after inoculation; read-out: efficacy
Experimental: Example IX-C: In Vivo Preventive Test on Sphaerotheca Fuliginea (Powdery Mildew on Cucurbits)
as §1
The young plants of gherkin are treated by spraying the active ingredient prepared as described above. Control plants are treated only with an aqueous solution of Acetone/Dimethyl sulfoxide/Tween® 80.
After 24 hours, the plants are contaminated by spraying the leaves with an aqueous suspension of Sphaerotheca fuliginea spores. The contaminated gherkin plants are incubated for 72 hours at 18° C. and at 100% relative humidity and then for 12 days at 20° C. and at 70-80% relative humidity.
The test is evaluated 15 days after the inoculation. 0% means an efficacy which corresponds to that of the control plants while an efficacy of 100% means that no disease is observed.

Puccinia recondita = test: Example IX-A: in vivo preventive test on Puccinia recondita (brown rust on wheat); details: 264 h, compounds of formula IX, 500 ppm of active ingredient, wheat plants, preventive spray, evaluated 11 days after inoculation, read-out: efficacy
Experimental: Example IX-A: In Vivo Preventive Test on Puccinia Recondita (Brown Rust on Wheat)
as §1, §2
After 24 hours, the plants are contaminated by spraying the leaves with an aqueous suspension of Puccinia recondita spores. The contaminated wheat plants are incubated for 24 hours at 20° C. and at 100% relative humidity and then for 10 days at 20° C. and at 70-80% relative humidity.
(§3) The test is evaluated 11 days after the inoculation. 0% means an efficacy which corresponds to that of the control plants while an efficacy of 100% means that no disease is observed.

[1] = Log P by HPLC on reversed phase columns (EEC directive 79/831 Annex V.A8; methods [a], [b], [c]); type: physicochemical; details: reversed phase HPLC column; method [a]: LC-UV, acidic range, 0.1% formic acid in water and acetonitrile as eluent (linear gradient from 10% to 95% acetonitrile)
How it was run: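 Reversed-phase HPLC with LC-UV detection, 10→95% acetonitrile linear gradient; aqueous eluent 0.1% formic acid [a], 0.001 M ammonium acetate, neutral [b], or 0.1% phosphoric acid [c]. Calibrated against C3–C16 alkan-2-ones of known Log P by retention-time linear interpolation; multiple values within a method separated by "+".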

Uromyces appendiculatus = test: Example IX-D: in vivo preventive test on Uromyces appendiculatus (bean rust); details: 264 h, compounds of formula IX, 500 ppm of active ingredient, bean plants, preventive spray, evaluated 11 days after inoculation, read-out: efficacy
Experimental: Example IX-D: In Vivo Preventive Test on Uromyces Appendiculatus (Bean Rust)
as §1
The young plants of bean are treated by spraying the active ingredient prepared as described above. Control plants are treated only with an aqueous solution of Acetone/Dimethyl sulfoxide/Tween® 80.
After 24 hours, the plants are contaminated by spraying the leaves with an aqueous suspension of Uromyces appendiculatus spores. The contaminated bean plants are incubated for 24 hours at 20° C. and at 100% relative humidity and then for 10 days at 20° C. and at 70-80% relative humidity.
as §3
control plants while an efficacy of 100% means that no disease was observed.

Structure (SMILES)	pest or weed control at 500 ppm (Septoria tritici)	pest or weed control at 500 ppm (Sphaerotheca fuliginea)	pest or weed control at 500 ppm (Puccinia recondita)	chromatographic logP [1]	pest or weed control at 500 ppm (Uromyces appendiculatus)
N#Cc1cncn1CC(=O)c1ccc(Oc2ccc(Cl)cn2)cc1Cl [IX-70]	70 to 79%	90 to 100%	80 to 89%	2.8	
N#Cc1cncn1CC(=O)c1ccc(Oc2ccc(Br)cc2)cc1C(F)(F)F [IX-59]	90 to 100%	90 to 100%	90 to 100%	3.65	90 to 100%
N#Cc1cncn1CC(=O)c1cnc(Oc2ccc(C(F)(F)F)cc2)cc1Cl [IX-114]	90 to 100%	80 to 89%	90 to 100%	3.29	90 to 100%
N#Cc1cncn1CC(=O)c1ccc(Oc2ccc(C(F)F)cc2)nc1C(F)(F)F [IX-132]	90 to 100%	90 to 100%	90 to 100%	2.8	
O=C(Cn1cncc1Cl)c1ccc(Oc2ccc(I)cc2)cc1Br [IX-38]	90 to 100%	90 to 100%	90 to 100%	3.35	90 to 100%
O=C(Cn1cncc1Br)c1ccc(Oc2ccc(S(F)(F)(F)(F)F)cc2)nc1Cl [IX-26]	80 to 89%	90 to 100%	80 to 89%	3.23	
O=C(Cn1cncc1Br)c1ccc(Oc2ccc(C(F)(F)F)cc2)cc1C(F)(F)F [IX-51]	90 to 100%	90 to 100%	80 to 89%	3.51	
O=C(Cn1cncc1Br)c1ccc(Oc2ccc(Cl)cn2)cc1Cl [IX-55]	90 to 100%	90 to 100%	80 to 89%	2.52	
N#Cc1cncn1CC(=O)c1ccc(Oc2ccc(Br)cc2)nc1C(F)(F)F [IX-118]	90 to 100%	90 to 100%		3.39	80 to 89%
N#Cc1cncn1CC(=O)c1ccc(Oc2ccc(Br)nc2)nc1C(F)(F)F [IX-144]	90 to 100%	90 to 100%	70 to 79%	2.68	
O=C(Cn1cncc1Cl)c1ccc(Oc2ccc(Cl)cn2)cc1C(F)(F)F [IX-72]	90 to 100%	70 to 79%	80 to 89%	2.75	
N#Cc1cncn1CC(=O)c1cnc(Oc2ccc(Cl)cc2F)cc1C(F)(F)F [IX-96]	90 to 100%	90 to 100%	80 to 89%	3.46	
N#Cc1cncn1CC(=O)c1ccc(Oc2ccc(Cl)cn2)cc1C(F)(F)F [IX-71]	90 to 100%	90 to 100%	90 to 100%	3.01	
N#Cc1cncn1CC(=O)c1ccc(Oc2ccc(C(F)(F)F)cc2)nc1C(F)(F)F [IX-137]	90 to 100%	90 to 100%	90 to 100%	3.35	
O=C(Cn1cncc1Cl)c1ccc(Oc2ccc(C(F)(F)F)cc2)cc1C(F)(F)F [IX-53]	90 to 100%		90 to 100%	3.51	90 to 100%
O=C(Cn1cncc1Cl)c1ccc(Oc2ccc(Cl)cc2)cc1C(F)F [IX-73]	90 to 100%		90 to 100%	3.02	90 to 100%
N#Cc1cncn1CC(=O)c1cnc(Oc2ccc(Br)cc2)cc1C(F)F [IX-123]	90 to 100%		90 to 100%	2.89	90 to 100%

Structure (SMILES)	pest or weed control at 500 ppm (Septoria tritici)	pest or weed control at 500 ppm (Sphaerotheca fuliginea)	pest or weed control at 500 ppm (Puccinia recondita)	chromatographic logP [1]	pest or weed control at 500 ppm (Uromyces appendiculatus)
O=C(Cn1cncc1Cl)c1ccc(Oc2ccc(Cl)cc2)nc1C(F)(F)F [IX-52]	90 to 100%	70 to 79%	90 to 100%	3	
N#Cc1cncn1CC(=O)c1cnc(Oc2ccc(C(F)F)cc2)cc1C(F)(F)F [IX-98]	90 to 100%		80 to 89%	3.13	90 to 100%
O=C(Cn1cncc1Cl)c1ccc(Oc2ccc(C(F)(F)F)cc2)cc1 [IX-17]	90 to 100%	90 to 100%	80 to 89%	2.84	
O=C(Cn1cncc1Cl)c1ccc(Oc2ccc(Cl)nc2)cc1C(F)(F)F [IX-28]	90 to 100%	90 to 100%	80 to 89%	2.45	
O=C(Cn1cncc1Br)c1ccc(Oc2ccc(Br)cc2)cc1C(F)(F)F [IX-40]	90 to 100%		80 to 89%	3.46	90 to 100%
N#Cc1cncn1CC(=O)c1ccc(Cl)cc1 [IX-90]	90 to 100%	80 to 89%	80 to 89%	2.04	
O=C(Cn1cncc1Cl)c1ccc(Oc2ccc(Cl)nc2)cc1Cl [IX-44]	90 to 100%	90 to 100%	80 to 89%	2.2	
CC(=O)c1cncn1CC(=O)c1cnc(Oc2ccc(Cl)cc2)cc1C(F)(F)F [IX-120]	90 to 100%		90 to 100%	3.55	80 to 89%
O=C(Cn1cncc1F)c1cnc(Oc2ccc(C(F)F)cc2)cc1C(F)(F)F [IX-97]	90 to 100%		80 to 89%	2.53	90 to 100%
N#Cc1cncn1CC(=O)c1ccc(Oc2ccc(C(F)(F)F)nc2)nc1C(F)(F)F [IX-131]	90 to 100%	90 to 100%	80 to 89%	2.92	
N#Cc1cncn1CC(=O)c1ccc(Cl)cc1Cl [IX-99]	90 to 100%	90 to 100%	70 to 79%	2.34	
O=C(Cn1cncc1Cl)c1ccc(Oc2ccc(Cl)cc2)cc1 [IX-21]	90 to 100%	90 to 100%	80 to 89%	2.63	
N#Cc1cncn1CC(=O)c1ccc(Oc2ccc(OC(F)(F)F)cc2)nc1C(F)(F)F [IX-129]	90 to 100%	90 to 100%	90 to 100%	3.32	
O=C(Cn1cncc1Br)c1ccc(Oc2ccc(Cl)nc2)cc1Cl [IX-56]	90 to 100%		80 to 89%	2.25	
N#Cc1cncn1CC(=O)c1ccc(Oc2ccc(Cl)cc2F)nc1C(F)(F)F [IX-128]	90 to 100%	90 to 100%	70 to 79%	3.14	
N#Cc1cncn1CC(=O)c1cnc(Oc2ccc(Br)nc2)cc1C(F)(F)F [IX-143]	90 to 100%	90 to 100%	80 to 89%	2.71	
O=C(Cn1cncc1Br)c1ccc(Oc2ccc(Cl)cc2)cc1 [IX-22]	90 to 100%	90 to 100%	80 to 89%	2.63	
